# What was measured:
# [1] = test system: ORYSAT (Rice, Tebonnet); assay: Rice tolerance to post-transplant applications, flooded paddy conditions (Table IV); type: in vivo, Oryza sativa, (L.) Tebonnet
# Description: (§1) Results of herbicide evaluation are expressed on a rating scale (0-9). The scale is based upon a visual observation of plant stand, vigor, malformation, size, chlorosis and overall plant appearance as compared with a control.
# Plastic containers containing weeds which are 3 to 5 cm tall and rice seedlings at the 1.5 to 2.5 leaf stage are flooded with water. The water is maintained at 1.5 to 3 cm above the soil surface for the duration of the experiment. Test compounds are applied as aqueous/ acetone mixtures 50/50 v/v directly into the flood water to provide the equivalent of about 0.0313 to 0.500 kg/ha of active ingredient. The treated containers are placed on greenhouse benches and cared for in accordance with conventional greenhouse procedures. Three to four weeks after treatment, the test is terminated and each container is examined and herbicidal effect rated according to the rating system provided in Example 37. The compounds evaluated are reported by compound number given in Example 37.
# [2] = test system: GALAP (Galium); assay: Postemergence herbicidal evaluation; type: in vivo, Galium aparine; details: for GALAP herbicidal rating / herbicidal rating GALAP: postemergence
# Method in brief: (§2)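 First, seedlings were raised for around two weeks. Next, test material in 50/50 acetone/water containing 0.5% TWEEN 20 was sprayed through a nozzle at 40 psi, equivalent to about 0.0156–0.500 kg/ha. Finally, after 4–5 weeks in the greenhouse, plants were rated 0–9.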
# [3] = test system: MOOVA (Monochoria); assay: Postemergence weed control under flooded paddy conditions; type: in vivo, Monochoria vaginalis; details: postemergence weeds, 3-4 weeks after treatment
# Method in brief: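 Weeds 3 to 5 cm tall and rice seedlings at the 1.5 to 2.5 leaf stage were flooded, with water held 1.5 to 3 cm above the soil. Compounds in 50/50 v/v aqueous/acetone went into the flood water at about 0.0313 to 0.500 kg/ha. Visual 0-9 ratings versus control were made 3 to 4 weeks later.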
# [4] = test system: GALAP (Galium); assay: Preemergence herbicidal evaluation; type: in vivo, Galium aparine; details: rated 4-5 weeks after treatment; for GALAP rating: preemergence, 0-9 scale
# Method in brief: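 Seeds were planted in potting soil in cups, then sprayed preemergence with the test compound in aqueous acetone at about 0.0156 to 0.500 kg per hectare. Cups were kept under greenhouse conditions and visually rated 4–5 weeks after treatment on a 0–9 scale against an untreated control.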
# [5] = test system: ABUTH (Velvetleaf); assay: Postemergence herbicidal evaluation; type: in vivo, Abutilon theophrasti; details: for ABUTH herbicidal rating / herbicidal rating ABUTH: postemergence
# Method in brief: as §2
# [6] = test system: ORYSAT (Rice, Tebonnet); assay: Rice tolerance to post-transplant applications, flooded paddy conditions (Table III); type: in vivo, Oryza sativa, (L.) Tebonnet
# Procedure: as §1
# The tolerance of transplanted rice to post-transplanted herbicide applications is determined as follows: two ten-day-old rice seedlings (cv. Tebonnet) are transplanted into silt loam soil in 32 oz. plastic containers with a diameter of 10.5 cm and no drainage holes. After transplanting, the containers are flooded and the water level is maintained at 1.5 to 3 cm above the soil surface. Three days after transplanting, the flooded soil surface of the containers is treated with the selected aqueous/acetone 50/50 v/v mixture containing the test compounds to provide the equivalent of about 0.0313 to 0.500 kg/ha of active ingredient. The treated containers are placed on greenhouse benches, watered such that the water level is maintained as stated above, and cared for in accordance with conventional greenhouse procedures. Three to four weeks after treatment, the test is terminated and each container is examined and herbicidal effect rated according to the rating system provided in Example 37. The compounds evaluated are reported by compound number given in Example 37.
# Plant species employed in this example are reported by header abbreviation, common name and scientific name.
structure (smiles),measurement,setting,value
"CCOC(=O)CN1C(=O)C(=C2CCCC2)SC1=Nc1cc(-n2c(=O)cc(C(F)(F)F)n(C)c2=O)c(F)cc1Cl [Compound 18, Ethyl 2-{{2-chloro-5-[3,6-dihydro-3-methyl-2,6-dioxo-4-(trifluoromethyl)-1(2H)-pyrimidinyl]-4-fluorophenyl}imino}-5-cyclopentylidene-4-oxo-3-thiazolidineacetate]",Herbicidal rating ORYSAT (rice tolerance),[1]; in vivo,3.0
same,GALAP herbicidal rating,[2]; rate 0.0158 kg/ha,2.0
same,GALAP herbicidal rating,[2]; rate 0.0315 kg/ha,5.0
same,GALAP herbicidal rating,[2]; rate 0.0630 kg/ha,6.0
same,Herbicidal rating MOOVA,[3]; rate 0.1160 kg/ha,9.0
same,Herbicidal rating MOOVA,[3]; rate 0.2310 kg/ha,9.0
same,Herbicidal rating MOOVA,[3]; rate 0.4630 kg/ha,9.0
same,GALAP preemergence herbicidal rating,[4]; rate 0.1250 kg/ha,0.0
same,GALAP preemergence herbicidal rating,[4]; rate 0.2500 kg/ha,9.0
same,ABUTH herbicidal rating,[5]; rate 0.0158 kg/ha,9.0
same,ABUTH herbicidal rating,[5]; rate 0.0315 kg/ha,9.0
same,ABUTH herbicidal rating,[5]; rate 0.0630 kg/ha,9.0
same,Herbicidal rating ORYSAT (rice tolerance),[6]; in vivo,3.0
"CCOC(=O)CN1C(=O)C(=C(C)C)S/C1=N/c1cc(-n2c(=O)cc(C(F)(F)F)n(C)c2=O)c(F)cc1Cl [Compound 20, Ethyl 2-{{2-chloro-5-[3,6-dihydro-3-methyl-2,6-dioxo-4-(trifluoromethyl)-1(2H)-pyrimidinyl]-4-fluorophenyl}imino}-5-isopropylidene-4-oxo-3-thiazolidineacetate]",Herbicidal rating ORYSAT (rice tolerance),[1]; in vivo,2.0
same,GALAP herbicidal rating,[2]; rate 0.0158 kg/ha,1.0
same,GALAP herbicidal rating,[2]; rate 0.0315 kg/ha,2.0
same,GALAP herbicidal rating,[2]; rate 0.0630 kg/ha,6.0
same,Herbicidal rating MOOVA,[3]; rate 0.1160 kg/ha,9.0
same,Herbicidal rating MOOVA,[3]; rate 0.2310 kg/ha,9.0
same,Herbicidal rating MOOVA,[3]; rate 0.4630 kg/ha,9.0
same,GALAP preemergence herbicidal rating,[4]; rate 0.0625 kg/ha,0.0
same,GALAP preemergence herbicidal rating,[4]; rate 0.1250 kg/ha,0.0
same,GALAP preemergence herbicidal rating,[4]; rate 0.2500 kg/ha,0.0
same,ABUTH herbicidal rating,[5]; rate 0.0158 kg/ha,9.0
same,ABUTH herbicidal rating,[5]; rate 0.0315 kg/ha,9.0
same,ABUTH herbicidal rating,[5]; rate 0.0630 kg/ha,9.0
same,Herbicidal rating ORYSAT (rice tolerance),[6]; in vivo,2.0
"CCOC(=O)CN1C(=O)C(=Cc2ccc(F)cc2)SC1=Nc1cc(-n2c(=O)cc(C(F)(F)F)n(C)c2=O)c(F)cc1Cl [Compound 21, Ethyl 2-{{2-chloro-5-[3,6-dihydro-3-methyl-2,6-dioxo-4-(trifluoromethyl)-1(2H)-pyrimidinyl]-4-fluorophenyl}imino}-5-(p-fluorobenzylidene)-4-oxo-3-thiazolidineacetate]",Herbicidal rating ORYSAT (rice tolerance),[1]; in vivo,0.0
same,GALAP herbicidal rating,[2]; rate 0.0158 kg/ha,2.0
same,GALAP herbicidal rating,[2]; rate 0.0315 kg/ha,2.0
same,GALAP herbicidal rating,[2]; rate 0.0630 kg/ha,4.0
same,Herbicidal rating MOOVA,[3]; rate 0.1160 kg/ha,0.0
same,Herbicidal rating MOOVA,[3]; rate 0.2310 kg/ha,0.0
same,Herbicidal rating MOOVA,[3]; rate 0.4630 kg/ha,0.0
same,GALAP preemergence herbicidal rating,[4]; rate 0.2500 kg/ha,0.0
same,ABUTH herbicidal rating,[5]; rate 0.0158 kg/ha,4.0
same,ABUTH herbicidal rating,[5]; rate 0.0315 kg/ha,7.0
same,ABUTH herbicidal rating,[5]; rate 0.0630 kg/ha,9.0
same,Herbicidal rating ORYSAT (rice tolerance),[6]; in vivo,0.0
"CCOC(=O)CCN1C(=O)CSC1=Nc1cc(-n2c(=O)cc(C(F)(F)F)n(C)c2=O)c(Cl)cc1Cl [Compound 32, Ethyl 2-{{2,4-dichloro-5-[3,6-dihydro-3-methyl-2,6-dioxo-4-(trifluoromethyl)-1(2H)-pyrimidinyl]-phenyl}imino}-4-oxo-3-thiazolidinepropionate]",Herbicidal rating ORYSAT (rice tolerance),[1]; in vivo,0.0
same,Postemergence herbicidal rating GALAP,[2]; Rate 0.0158 kg/ha,0.0
same,Postemergence herbicidal rating GALAP,[2]; Rate 0.0313 kg/ha,0.0
same,Postemergence herbicidal rating GALAP,[2]; Rate 0.0625 kg/ha,0.0
same,Postemergence herbicidal rating GALAP,[2]; Rate 0.1250 kg/ha,2.0
same,Preemergence herbicidal rating GALAP,[4]; rate 0.0156 kg/ha,0.0
same,Preemergence herbicidal rating GALAP,[4]; rate 0.0313 kg/ha,0.0
same,Preemergence herbicidal rating GALAP,[4]; rate 0.0625 kg/ha,0.0
same,Preemergence herbicidal rating GALAP,[4]; rate 0.1250 kg/ha,0.5
same,Preemergence herbicidal rating GALAP,[4]; rate 0.2500 kg/ha,3.5
same,Preemergence herbicidal rating GALAP,[4]; rate 0.5000 kg/ha,7.0
same,Postemergence herbicidal rating ABUTH,[5]; Rate 0.0158 kg/ha,5.0
same,Postemergence herbicidal rating ABUTH,[5]; Rate 0.0313 kg/ha,9.0
same,Postemergence herbicidal rating ABUTH,[5]; Rate 0.0625 kg/ha,9.0
same,Postemergence herbicidal rating ABUTH,[5]; Rate 0.1250 kg/ha,9.0
same,Herbicidal rating ORYSAT (rice tolerance),[6]; in vivo,0.0
"CCOP(=O)(CN1C(=O)CSC1=Nc1cc(-n2c(=O)cc(C(F)(F)F)n(C)c2=O)c(F)cc1Cl)OCC [Compound 35, Diethyl {{2-{{2-chloro-5-[3,6-dihydro-3-methyl-2,6-dioxo-4-(trifluoromethyl)-1(2H)-pyrimidinyl]-4-fluorophenyl}imino}-4-oxo-3-thiazolidinyl}methyl}phosphonate]",Herbicidal rating ORYSAT (rice tolerance),"[1]; rate 0.1250 kg/ha, flooded paddy, post-transplant rice, 3-4 weeks after treatment",2.0
same,Herbicidal rating ORYSAT (rice tolerance),"[1]; rate 0.2500 kg/ha, flooded paddy, post-transplant rice, 3-4 weeks after treatment",3.0
same,Postemergence herbicidal rating GALAP,[2]; Rate 0.0158 kg/ha,4.0
same,Postemergence herbicidal rating GALAP,[2]; Rate 0.0315 kg/ha,5.0
same,Postemergence herbicidal rating GALAP,[2]; Rate 0.0630 kg/ha,5.0
same,Preemergence herbicidal rating GALAP,[4]; rate 0.0625 kg/ha,0.0
same,Preemergence herbicidal rating GALAP,[4]; rate 0.1250 kg/ha,0.0
same,Preemergence herbicidal rating GALAP,[4]; rate 0.2500 kg/ha,9.0
same,Postemergence herbicidal rating ABUTH,[5]; Rate 0.0158 kg/ha,9.0
same,Postemergence herbicidal rating ABUTH,[5]; Rate 0.0315 kg/ha,9.0
same,Postemergence herbicidal rating ABUTH,[5]; Rate 0.0630 kg/ha,9.0
same,Herbicidal rating ORYSAT (rice tolerance),"[6]; 0.1250 kg/ha, post-transplant rice, flooded paddy, rated 3-4 weeks after treatment",2.0
same,Herbicidal rating ORYSAT (rice tolerance),"[6]; 0.2500 kg/ha, post-transplant rice, flooded paddy, rated 3-4 weeks after treatment",3.0
"COC(=O)C1(N2C(=O)CSC2=Nc2cc(-n3c(=O)cc(C(F)(F)F)n(C)c3=O)c(F)cc2Cl)CCCCC1 [Compound 81, Methyl 1-{2-{{2-chloro-5-[3,6-dihydro-3-methyl-2,6-dioxo-4-(trifluoromethyl)-1(2H)-pyrimidinyl]-4-fluorophenyl}imino}-4-oxo-3-thiazolidinyl}-cyclohexanecarboxylate]",Herbicidal rating ORYSAT (rice tolerance),[1]; in vivo,0.0
same,GALAP herbicidal rating,[2]; rate 0.0158 kg/ha,1.0
same,GALAP herbicidal rating,[2]; rate 0.0315 kg/ha,5.0
same,GALAP herbicidal rating,[2]; rate 0.0630 kg/ha,4.0
same,GALAP rating,[4]; 0.0313 kg/ha,0.0
same,GALAP rating,[4]; 0.0625 kg/ha,0.0
same,GALAP rating,[4]; 0.1250 kg/ha,0.0
same,GALAP rating,[4]; 0.2500 kg/ha,1.0
same,ABUTH herbicidal rating,[5]; rate 0.0158 kg/ha,7.0
same,ABUTH herbicidal rating,[5]; rate 0.0315 kg/ha,7.0
same,ABUTH herbicidal rating,[5]; rate 0.0630 kg/ha,9.0
same,ORYSAT herbicidal effect rating (rice tolerance),[6]; in vivo,0.0
CSCCN1C(=O)CSC1=Nc1cc(-n2c(=O)cc(C(F)(F)F)n(C)c2=O)c(F)cc1Cl [Compound 157],herbicidal rating GALAP,[2]; rate 0.0156 kg/ha,0.0
same,herbicidal rating GALAP,[2]; rate 0.0313 kg/ha,0.0
same,herbicidal rating GALAP,[2]; rate 0.0625 kg/ha,2.0
same,Preemergence herbicidal rating GALAP,"[4]; rate 0.0313 kg/ha, rating scale 0-9",0.0
same,Preemergence herbicidal rating GALAP,"[4]; rate 0.0625 kg/ha, rating scale 0-9",0.0
same,Preemergence herbicidal rating GALAP,"[4]; rate 0.1250 kg/ha, rating scale 0-9",0.0
same,Preemergence herbicidal rating GALAP,"[4]; rate 0.2500 kg/ha, rating scale 0-9",4.0
same,herbicidal rating ABUTH,[5]; rate 0.0156 kg/ha,7.0
same,herbicidal rating ABUTH,[5]; rate 0.0313 kg/ha,9.0
same,herbicidal rating ABUTH,[5]; rate 0.0625 kg/ha,9.0
same,"herbicidal effect rating, ORYSAT (rice tolerance)",[6]; in vivo,0.0

# From patent publication US20020137929A1, “1 - (3-heterocyclylphenyl) isothiourea, -isourea, -guanidine and -amidine herbicidal agents” (Intellectual Property Department, BASF Aktiengesellschaft, priority 1998, published 2002)
